Results from US20050054620A1, “Paricalcitol as a chemotherapeutic agent” (priority 2003, published 2005).

Tests used:
[1] = system: HL-60 cells; assay: Western blot of cell lysates; type: cell-based, human; details: for phosphorylation of Rb / expression of Bax / expression of C/EBPβ: 3 days; for expression of Bax / expression of C/EBPβ / expression of phosphorylated-ERK: paricalcitol 0.01 μM, arsenic trioxide 0.8 μM; for expression of phosphorylated-ERK: peak after 1 day
Procedure: (§1) Western blot analysis was used to determine the levels of proteins involved in cell cycle and differentiation. For western blot analysis, cells were washed twice in PBS, suspended in lysis buffer [50 mM Tris (pH 8.0), 150 mM NaCl, 0.1% SDS, 0.5% sodium deoxycholate, 1% NP40, […] phenylmethylsulfonyl fluoride, […] aprotinin, […] pepstatin, and […] leupetin] and placed on ice for 30 min. After centrifugation at 15,000×g for 15 min at 4° C., the suspension was collected. Protein concentrations were quantitated using the Bio-Rad assay (Bio-Rad Labolatories, Hercules, Calif.). Whole lysates ([…]) were resolved by 4-15% SDS polyacrylamide gel, transferred to an immobilon polyvinylidene difuride membrane (Amersham Corp., Arlington Heights, Ill.), and probed sequentially with a number of antibodies (p21WAF1, p27KIP1, PTEN, and GAPDH, Santa Cruz Biotechnology Inc., Santa Cruz, Calif.). The blots were developed using the Supersignal West Pico Chemiluminescent Substrate Kit (Pierce, Rockford, Ill.).
(§2) Western blot analysis was performed as follows: cells were washed twice in PBS, suspended in lysis buffer (50 mM Tris at pH 8.0, 150 mM NaCl, 0.1% SDS, 0.5% sodium deoxycholate, 1% Nonidet P-40, phenylmethylsulfonyl fluoride at 100 μg/mL, aprotinin at 2 μg/mL, pepstatin at 1 μg/mL, and leupetin at 10 μg/mL), and placed on ice for 30 minutes. After centrifugation at 15,000×g for 15 minutes at 4° C., the suspension was collected. Protein concentrations were quantitated by using the Bio-Rad protein Assay Dye Reagent Concentrate (Bio-Rad Laboratories, Hercules, Calif.) according to the manufacture's recommendation. Whole cell lysates (40 μg) were resolved by SDS-polyacrylamide gel electrophoresis in a 4%-15% gel, transferred to a polyvinylidene difuride membrane (Immobilon, Amersham Corp., Arlington Heights, Ill.), and probed sequentially with antibodies against the following proteins: VDR, RXR, CEBPβ, Rb, Bcl-2, Bcl-XL, Bax, p-ERK, RARA, GAPDH (Santa Cruz Biotechnology Inc., Santa Cruz, CA). The blots were developed using the Supersignal West Pico Chemiluminescent Substrate Kit (Pierce, Rockford, Ill.).

[2] = system: NB-4 cells; assay: Western blot of cell lysates; type: cell-based, human
Procedure: as §1, §2

[3] = system: mononuclear bone marrow cells from VDR knock-out (VDR-KO) mice; assay: Colony-forming assay in methylcellulose, VDR knock-out mice; type: cell-based; details: 10^−8 M
Description: In FIG. 6D, colony formation by mononuclear bone marrow cells from VDR knock-out (VDR-KO) and wild type (WT) mice is shown. Mononuclear cells were obtained from femoral bone marrow plugs and grown in methylcellulose culture media with either paricalcitol (10^−8M) or diluant. Colonies were counted on day 10 of culture. The number of total colonies (average) were 87 (control) and 66 (paricalcitol 10^−8M) in wild type mice, and 110 (control) and 122 (paricalcitol 10^−8M) in VDR-KO mice. The percentage of macrophage, granulocyte and mixed granulocyte/macrophage colonies are shown. Triplicate wells for each mouse and a total of three KO and three WT mice were studied. G, granulocyte colonies; G/M mixed granulocyte/macrophage colonies; M, macrophage colonies.
The VDR KO Mouse and Colony-Forming Assay was performed as follows. VDR KO mice were generated and genotypes were determined by Southern Blot Analysis as described previously (O'Kelly et al., supra, 2002). For experiments using VDR KO mice, their wild-type (WT) littermates were used as controls. Mice were killed by cervical neck dislocation. Bone marrow was flushed out of isolated femurs with (a-MEM; Gibco BRL, Grand Island, N.Y., USA) including 10% FCS using a 26-gauge needle. Isolated spleens were injected with DMEM (Gibco BRL) plus 10% FCS and crushed with forceps to release cells. Mononuclear cells from bone marrow or spleen were separated by Ficoll-Hypaque density centrifugation (Amersham Pharmacia, Uppsala, Sweden). Resuspended mononuclear bone marrow cells (2×10^4 cells/ml) and growth factors were added 1:10 to methylcellulose medium M3234 (StemCell Technologies Inc., Vancouver, British Columbia, Canada) to yield a final concentration of 1% methylcellulose, 30% FCS, 1% BSA, 10^-4M mercaptoethanol, and 2 mM L-glutamine as described previously (19). Cells were plated in six-well plates in a volume of 1 ml and incubated at 37° C. in a humidified atmosphere containing 5% CO2. Colonies were counted after 2 weeks. Colony type was established by morphology; and to ensure accurate determination, representative colonies were plucked from the plates, centrifuged onto slides, stained with Wright-Giemsa stain and examined by light microscopy.

Compound	expression of VDR and RXR [1]	phosphorylation of Rb [1]	expression of Bax [1]	expression of C/EBPβ [1]	expression of phosphorylated-ERK [1]	protein level of PML-RAR ([2]; arsenic trioxide 0.6 μM, paricalcitol 0.1 μM, 3 days)	number of total colonies (average) ([3]; VDR knock out mice, control 110)	percentage of granulocyte colonies ([3]; VDR knock-out mice, control 13±3%) [%]	percentage of macrophage colonies ([3]; VDR knock-out mice, control 30±8%) [%]	percentage of mixed colonies ([3]; VDR knock-out mice, control 56±10%) [%]	induction of PTEN ([1]; 10^−7M, 72 hr) [fold]	induction of p21WAF1 ([1]; 10^−7M, 72 hr)	induction of p27KIP1 ([1]; 10^−7M, 72 hr)	induction of PTEN ([2]; 10^−7M, 72 hr) [fold]
arsenic trioxide	not substantially changed	increased	not changed	also increased its expression level	also increased	decreased the protein level of PML-RAR								
C[C@H](/C=C/[C@H](C)C(C)(C)O)[C@H]1CC[C@H]2/C(=C/C=C3C[C@@H](O)C[C@H](O)C3)CCC[C@]12C [paricalcitol, 19-nor-1,25, (OH)2D3]	not substantially changed	increased	not changed	increased	increased		122	13±4	25±5	61±8	7	approximately 7 fold	about 6 fold	25
